Counter-ions that a name gives are not always drawn.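 Assay format: 96-well plates, 48-hour exposure. At the GI50, growth is halved.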 Activity calls are given as the source filed them. Cut-off read from the data, not from the text of the source: active = GI50 up to about 1.1 µM and inactive = higher.
Experiments:
Assay in all cases: NCI-60 cell line screen, 48 h
EKVX = system: EKVX
OVCAR-8 = system: OVCAR-8
MDA-MB-231 = system: MDA-MB-231
UACC-257 = system: UACC-257
HCC 2998 = system: HCC 2998
SW-620 = system: SW-620
NCI/ADR-RES = system: NCI/ADR-RES
RXF 393 = system: RXF 393
SK-MEL-28 = system: SK-MEL-28
SK-MEL-5 = system: SK-MEL-5
CAKI-1 = system: CAKI-1
MCF7 = system: MCF7
K562 = system: K562
MDA-N = system: MDA-N
SNB-19 = system: SNB-19
NCI-H460 = system: NCI-H460
KM-20L2 = system: KM-20L2
LXFL 529 = system: LXFL 529
DMS-114 = system: DMS-114
SNB-78 = system: SNB-78

## CCC(=N\NC(N)=S)/C(C)=N/O
EKVX
  GI50: > 100 µM (inactive)
OVCAR-8
  GI50: > 100 µM (inactive)
MDA-MB-231
  GI50: > 100 µM (inactive)
UACC-257
  GI50: > 100 µM (inactive)
HCC 2998
  GI50: > 100 µM (inactive)
SW-620
  GI50: > 100 µM (inactive)
NCI/ADR-RES
  GI50: > 100 µM (inactive)
RXF 393
  GI50: > 100 µM (inactive)
SK-MEL-28
  GI50: > 100 µM (inactive)
SK-MEL-5
  GI50: > 100 µM (inactive)
CAKI-1
  GI50: > 100 µM (inactive)
MCF7
  GI50: > 100 µM (inactive)
K562
  GI50: > 100 µM (inactive)
MDA-N
  GI50: > 100 µM (inactive)
SNB-19
  GI50: > 100 µM (inactive)
NCI-H460
  GI50: > 100 µM (inactive)

## Cc1ccc(S(=O)(=O)OC(C=O)C(O)C(O)COC(c2ccccc2)(c2ccccc2)c2ccccc2)cc1 (configuration not stated)
EKVX
  GI50: 13.9 µM (inactive)
OVCAR-8
  GI50: 13.6 µM (inactive)
UACC-257
  GI50: 13.2 µM (inactive)
HCC 2998
  GI50: 12 µM (inactive)
SW-620
  GI50: 16.4 µM (inactive)
KM-20L2
  GI50: 14.1 µM (inactive)
LXFL 529
  GI50: 12.8 µM (inactive)
RXF 393
  GI50: 15.2 µM (inactive)
DMS-114
  GI50: 17.6 µM (inactive)
SK-MEL-28
  GI50: 20.6 µM (inactive)
SK-MEL-5
  GI50: 15.4 µM (inactive)
CAKI-1
  GI50: 19.8 µM (inactive)
K562
  GI50: 16.9 µM (inactive)
SNB-19
  GI50: 14.8 µM (inactive)
NCI-H460
  GI50: 14 µM (inactive)

## N=c1oc2ccc3ccccc3c2cc1-c1nc(O)c2ccccc2n1
EKVX
  GI50: 19.5 µM (inactive)
OVCAR-8
  GI50: 26.7 µM (inactive)
MDA-MB-231
  GI50: 24.1 µM (inactive)
UACC-257
  GI50: 42.5 µM (inactive)
HCC 2998
  GI50: 29.6 µM (inactive)
SW-620
  GI50: 36.8 µM (inactive)
NCI/ADR-RES
  GI50: 14.2 µM (inactive)
RXF 393
  GI50: 10.6 µM (inactive)
SK-MEL-28
  GI50: 95.7 µM (inactive)
SK-MEL-5
  GI50: 44.5 µM (inactive)
CAKI-1
  GI50: 43.5 µM (inactive)
MCF7
  GI50: 14.4 µM (inactive)
K562
  GI50: 19.7 µM (inactive)
MDA-N
  GI50: 46.2 µM (inactive)
SNB-19
  GI50: 27.6 µM (inactive)
NCI-H460
  GI50: 32.8 µM (inactive)

## CCOC(=O)/C(=C/c1ccccc1Br)P(=O)(OCC)OCC
EKVX
  GI50: 2.58 µM (inactive)
OVCAR-8
  GI50: 1.91 µM (inactive)
HCC 2998
  GI50: 1.78 µM (inactive)
SW-620
  GI50: 1.28 µM (inactive)
KM-20L2
  GI50: 2.25 µM (inactive)
LXFL 529
  GI50: 1.29 µM (inactive)
RXF 393
  GI50: 1.17 µM (inactive)
SK-MEL-28
  GI50: 2.03 µM (inactive)
SK-MEL-5
  GI50: 1.63 µM (inactive)
CAKI-1
  GI50: 2.09 µM (inactive)
K562
  GI50: 0.298 µM (active)
SNB-19
  GI50: 2.49 µM (inactive)
NCI-H460
  GI50: 2.87 µM (inactive)

## CN(CCCCN1CCCC1)CCCCN(C)C(=O)Cc1ccc(Cl)c(Cl)c1
EKVX
  GI50: 20.5 µM (inactive)
OVCAR-8
  GI50: 21.3 µM (inactive)
MDA-MB-231
  GI50: 10.1 µM (inactive)
UACC-257
  GI50: 2.52 µM (inactive)
HCC 2998
  GI50: 5.09 µM (inactive)
SW-620
  GI50: 18.8 µM (inactive)
NCI/ADR-RES
  GI50: > 100 µM (inactive)
RXF 393
  GI50: 11.7 µM (inactive)
SK-MEL-28
  GI50: 2 µM (inactive)
SK-MEL-5
  GI50: 6.43 µM (inactive)
CAKI-1
  GI50: 19.5 µM (inactive)
MCF7
  GI50: 14 µM (inactive)
K562
  GI50: 2.91 µM (inactive)
MDA-N
  GI50: 3.56 µM (inactive)
SNB-19
  GI50: 19.3 µM (inactive)
NCI-H460
  GI50: 14.8 µM (inactive)

## Cn1cnc([N+](=O)[O-])c1Sc1nnnn1-c1ccccc1
EKVX
  GI50: 16 µM (inactive)
OVCAR-8
  GI50: 13.8 µM (inactive)
UACC-257
  GI50: 13.7 µM (inactive)
SNB-78
  GI50: 13.7 µM (inactive)
HCC 2998
  GI50: 18.5 µM (inactive)
SW-620
  GI50: 7.05 µM (inactive)
LXFL 529
  GI50: 4.27 µM (inactive)
DMS-114
  GI50: 15.5 µM (inactive)
SK-MEL-28
  GI50: 14.4 µM (inactive)
SK-MEL-5
  GI50: 16.1 µM (inactive)
CAKI-1
  GI50: 15.9 µM (inactive)
K562
  GI50: 3.94 µM (inactive)
SNB-19
  GI50: 33.2 µM (inactive)
NCI-H460
  GI50: 16.5 µM (inactive)

## O=[N+]([O-])c1ccc2c(c1)Nc1c3ccccc3nc3cccc-2c13
EKVX
  GI50: 11.6 µM (inactive)
OVCAR-8
  GI50: 1.17 µM (inactive)
MDA-MB-231
  GI50: 2.41 µM (inactive)
UACC-257
  GI50: 16.9 µM (inactive)
HCC 2998
  GI50: 0.183 µM (active)
SW-620
  GI50: 2.13 µM (inactive)
NCI/ADR-RES
  GI50: 2.82 µM (inactive)
RXF 393
  GI50: 8.39 µM (inactive)
SK-MEL-28
  GI50: 6.52 µM (inactive)
SK-MEL-5
  GI50: 0.883 µM (active)
CAKI-1
  GI50: 4.67 µM (inactive)
MCF7
  GI50: 0.219 µM (active)
K562
  GI50: 2.1 µM (inactive)
MDA-N
  GI50: 3.62 µM (inactive)
SNB-19
  GI50: 17.3 µM (inactive)
NCI-H460
  GI50: 0.789 µM (active)

## CN[C@@H]1[C@H](O)[C@H](NC)[C@H]2O[C@@]3(O)C(=O)C[C@@H](C)O[C@H]3O[C@@H]2[C@H]1O [SPECTINOMYCIN SULFATE]
EKVX
  GI50: > 100 µM (inactive)
OVCAR-8
  GI50: > 100 µM (inactive)
MDA-MB-231
  GI50: > 100 µM (inactive)
UACC-257
  GI50: > 100 µM (inactive)
HCC 2998
  GI50: > 100 µM (inactive)
SW-620
  GI50: > 100 µM (inactive)
NCI/ADR-RES
  GI50: > 100 µM (inactive)
RXF 393
  GI50: > 100 µM (inactive)
SK-MEL-28
  GI50: > 100 µM (inactive)
SK-MEL-5
  GI50: > 100 µM (inactive)
CAKI-1
  GI50: > 100 µM (inactive)
MCF7
  GI50: > 100 µM (inactive)
K562
  GI50: > 100 µM (inactive)
MDA-N
  GI50: > 100 µM (inactive)
SNB-19
  GI50: > 100 µM (inactive)
NCI-H460
  GI50: > 100 µM (inactive)

Source: ChEMBL document CHEMBL1201862, “PubChem BioAssay data set” (2004)
